One data set relates to HBV. The data set is described as follows: HBV replication assay: HBV DNA from the supernatants of HepAD38 cells. The class given is cell-based. To be noted: Hepatitis B virus, 144 h, HBV DNA in supernatant at day 6, read-out: Cell Activity. The procedure:
Determination of HBV DNA from the Supernatants of HepAD38 Cells
The anti-HBV activity was analysed in the stable transfected cell line HepAD38, which has been described to secrete high levels of HBV virion particles (Ladner et al., 1997). In brief, HepAD38 cells were cultured at 37° C. at 5% CO2 and 95% humidity in 200 μl maintenance medium, which was Dulbecco's modified Eagle's medium/Nutrient Mixture F-12 (Gibco, Karlsruhe), 10% fetal bovine serum (PAN Biotech Aidenbach) supplemented with 50 μg/ml penicillin/streptomycin (Gibco, Karlsruhe), 2 mM L-glutamine (PAN Biotech, Aidenbach), 400 μg/ml G418 (AppliChem, Darmstadt) and 0.3 μg/ml tetracycline. Cells were subcultured once a week in a 1:5 ratio, but were usually not passaged more than ten times. For the assay 60,000 cells were seeded in maintenance medium without any tetracycline into each well of a 96-well plate and treated with serial half-log dilutions of test compound. To minimize edge effects the outer 36 wells of the plate were not used but were filled with assay medium. On each assay plate six wells for the virus control (untreated HepAD38 cells) and six wells for the cell control (HepAD38 cells treated with 0.3 μg/ml tetracycline) were allocated, respectively. In addition, one plate set with reference inhibitors like BAY 41-4109, entecavir, and lamivudine instead of screening compounds were prepared in each experiment. In general, experiments were performed thrice in triplicates. At day 6 HBV DNA from 100 μl filtrated cell culture supernatant (AcroPrep Advance 96 Filter Plate, […] Supor membran, PALL GmbH, Dreieich) was automatically purified on the MagNa Pure LC instrument using the MagNA Pure 96 DNA and Viral NA Small Volume Kit (Roche Diagnostics, Mannheim) according to the instructions of the manufacturer. EC50 values were calculated from relative copy numbers of HBV DNA In brief, 5 μl of the 100 μl eluate containing HBV DNA were subjected to PCR LC480 Probes Master Kit (Roche) together with 1 μM antisense primer […], 0.5 μM sense primer […], 0.3 μM hybprobes […]-FL and LC640-[…]-PH (TIBMolBiol, Berlin) to a final volume of […]. The PCR was performed on the Light Cycler 480 real time system (Roche Diagnostics, Mannheim) using the following protocol: Pre-incubation for 1 min at 95° C., amplification: 40 cycles×(10 sec at 95° C., 50 sec at 60° C., 1 sec at 70° C.), cooling for 10 sec at 40° C. Viral load was quantitated against known standards using HBV plasmid DNA of pCH-9/3091 (Nassal et al., 1990, Cell 63: 1357-1363) and the LightCycler 480 SW 1.5 software (Roche Diagnostics, Mannheim) and EC50 values were calculated using non-linear regression with GraphPad Prism 6 (GraphPad Software Inc., La Jolla, USA).

Data set [1] concerns the target T1, C-terminal truncated core protein (HBV core dimer, BODIPY-FL labelled) (UniProt P03146).
T1 construct: fused on or other part: One added cysteine at position 150, labelled with BODIPY-FL maleimide; The C-terminal arginine-rich domain is absent
The data set is described as follows: Biochemical capsid assembly assay (fluorescence quenching). The procedure:
Biochemical Capsid Assembly Assay
The screening for assembly effector activity was done based on a fluorescence quenching assay published by Zlotnick et al. (2007). The C-terminal truncated core protein containing 149 amino acids of the N-terminal assembly domain fused to a unique cysteine residue at position 150 and was expressed in E. coli using the pET expression system (Merck Chemicals, Darmstadt). Purification of core dimer protein was performed using a sequence of size exclusion chromatography steps. In brief, the cell pellet from 1 L BL21 (DE3) Rosetta2 culture expressing the coding sequence of core protein cloned NdeI/XhoI into expression plasmid pET21b was treated for 1 h on ice with a native lysis buffer (Qproteome Bacterial Protein Prep Kit; Qiagen, Hilden). After a centrifugation step the supernatant was precipitated during 2 h stirring on ice with 0.23 g/ml of solid ammonium sulfate. Following further centrifugation the resulting pellet was resolved in buffer A (100 mM Tris, pH 7.5; 100 mM NaCl; 2 mM DTT) and was subsequently loaded onto a buffer A equilibrated CaptoCore 700 column (GE HealthCare, Frankfurt). The column flow through containing the assembled HBV capsid was dialyzed against buffer N (50 mM NaHCO3 pH 9.6; 5 mM DTT) before urea was added to a final concentration of 3M to dissociate the capsid into core dimers for 1.5 h on ice. The protein solution was then loaded onto a 1 L Sephacryl 5300 column. After elution with buffer N core dimer containing fractions were identified by SDS-PAGE and subsequently pooled and dialyzed against 50 mM HEPES pH 7.5; 5 mM DTT. To improve the assembly capacity of the purified core dimers a second round of assembly and disassembly starting with the addition of 5 M NaCl and including the size exclusion chromatography steps described above was performed. From the last chromatography step core dimer containing fractions were pooled and stored in aliquots at concentrations between 1.5 to 2.0 mg/ml at −80° C.
Immediately before labelling the core protein was reduced by adding freshly prepared DTT in a final concentration of 20 mM. After 40 min incubation on ice storage buffer and DTT was removed using a Sephadex G-25 column (GE HealthCare, Frankfurt) and 50 mM HEPES, pH 7.5. For labelling 1.6 mg/ml core protein was incubated at 4° C. and darkness overnight with BODIPY-FL maleimide (Invitrogen, Karlsruhe) in a final concentration of 1 mM. After labelling the free dye was removed by an additional desalting step using a Sephadex G-25 column. Labelled core dimers were stored in aliquots at 4° C. In the dimeric state the fluorescence signal of the labelled core protein is high and is quenched during the assembly of the core dimers to high molecular capsid structures. The screening assay was performed in black 384 well microtiter plates in a total assay volume of 10 μl using 50 mM HEPES pH 7.5 and 1.0 to 2.0 μM labelled core protein. Each screening compound was added in 8 different concentrations using a 0.5 log-unit serial dilution starting at a final concentration of 100 μM, 31.6 μM or 10 μM, In any case the DMSO concentration over the entire microtiter plate was 0.5%. The assembly reaction was started by the injection of NaCl to a final concentration of […] which induces the assembly process to approximately 25% of the maximal quenched signal. […] after starting the reaction the fluorescence signal was measured using a Clariostar plate reader (BMG Labtech, Ortenberg) with an excitation of 477 nm and an emission of 525 nm. As 100% and 0% assembly control HEPES buffer containing 2.5 M and 0 M NaCl was used. Experiments were performed thrice in triplicates. EC50 values were calculated by non-linear regression analysis using the Graph Pad Prism 6 software (GraphPad Software, La Jolla, USA).

The nature of data set [2]: Cell viability assay (AlamarBlue). To be noted: human, HepAD38 cells.

A word on the IC50: it is the concentration that gives 50% inhibition. What is called CC50 is the concentration that lowers cell viability or growth by half.

Molecules are shown by their SMILES. Where only a bound is given, the exact number is not on record here.

T1 sequence (P03146 whole entry, the tested form may be a part): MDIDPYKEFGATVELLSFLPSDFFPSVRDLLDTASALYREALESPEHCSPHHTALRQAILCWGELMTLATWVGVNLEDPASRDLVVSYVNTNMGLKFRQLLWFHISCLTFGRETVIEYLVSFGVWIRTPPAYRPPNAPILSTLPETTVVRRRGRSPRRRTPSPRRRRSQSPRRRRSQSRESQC

Regarding `O=C(NC1CCOC1)C(=O)N1CCN(C(=O)c2cc3ccccc3[nH]2)CC1` (stereo not drawn) [Example 35, 2-(4-(1H-indole-2-carbonyl)piperazin-1-yl)-2-oxo-N-(tetrahydrofuran-3-yl)acetamide], the EC50 with HBV was under 1 µM. In data set [1], this molecule returned an IC50 of 5 to 10 µM. The molecule further came in with a CC50 at 6 days in data set [2] of over 100 µM.
`O=C(NCc1ccoc1)C(=O)N1CCN(C(=O)c2cc3ccccc3[nH]2)CC1` [Example 10, 2-(4-(1H-indole-2-carbonyl)piperazin-1-yl)-N-(furan-3-ylmethyl)-2-oxoacetamide]: the EC50 in the data set on HBV is under 1 µM. In data set [1], this molecule returned an IC50 of under 5 µM. Moreover, the CC50 at 6 days in data set [2] was over 100 µM.
Take `CCC(CCO)CNC(=O)C(=O)N1CCN(C(=O)c2cc3c(F)cc(F)cc3[nH]2)CC1` (stereo not drawn) [Example 59, 2-(4-(4,6-difluoro-1H-indole-2-carbonyl)piperazin-1-yl)-N-(2-ethyl-4-hydroxybutyl)-2-oxoacetamide]: in the data set on HBV, the EC50 is under 1 µM. The molecule also displayed an IC50 in data set [1] of under 5 µM. The CC50 at 6 days in data set [2] is over 100 µM.
Turning to `O=C(NCCO)C(=O)N1CCN(C(=O)c2cc3ccccc3[nH]2)CC1` [Example 3, 2-(4-(1H-indole-2-carbonyl)piperazin-1-yl)-N-(2-hydroxyethyl)-2-oxoacetamide], in the data set on HBV, the EC50 is 1 to 10 µM. The same molecule displayed an IC50 in data set [1] of under 100 µM. Moreover, the CC50 at 6 days in data set [2] was over 100 µM.
For `C[C@@H](O)CNC(=O)C(=O)N1CCN(C(=O)c2cc3ccccc3[nH]2)CC1` [Example 2, (R)-2-(4-(1H-indole-2-carbonyl)piperazin-1-yl)-N-(2-hydroxypropyl)-2-oxoacetamide] the same measures were 1 to 10 µM, 5 to 10 µM and over 100 µM.
Regarding `O=C(NCCCO)C(=O)N1CCN(C(=O)c2cc3c(F)cc(F)cc3[nH]2)CC1` [Example 54, 2-(4-(4,6-difluoro-1H-indole-2-carbonyl)piperazin-1-yl)-N-(3-hydroxypropyl)-2-oxoacetamide], the EC50 in the data set on HBV was under 1 µM. This molecule gave an IC50 in data set [1] of under 5 µM. In data set [2], this molecule displayed a half-maximal cytotoxic concentration (CC50) at 6 days of over 100 µM.
The corresponding values for `O=C(NCCCCCCO)C(=O)N1CCN(C(=O)c2cc3c(F)cc(F)cc3[nH]2)CC1` [Example 56, 2-(4-(4,6-difluoro-1H-indole-2-carbonyl)piperazin-1-yl)-N-(6-hydroxyhexyl)-2-oxoacetamide] are 1 to 10 µM, under 5 µM and over 100 µM.
`CCCCNC(=O)C(=O)N1CCN(C(=O)c2cc3ccccc3[nH]2)CC1` [Example 6, N-butyl-2-[4-(1H-indole-2-carbonyl)piperazin-1-yl]-2-oxoacetamide]: the EC50 with HBV was under 1 µM. In data set [1], this molecule had a half-maximal inhibitory concentration (IC50) of under 5 µM. Further, in data set [2], the CC50 at 6 days was over 100 µM.
Regarding `CCCCNC(=O)C(=O)N1CCN(C(=O)c2cc3cccc(C)c3[nH]2)CC1` [Example 24, N-butyl-2-(4-(7-methyl-1H-indole-2-carbonyl)piperazin-1-yl)-2-oxoacetamide], in the data set with HBV, the EC50 was under 1 µM. For the same molecule, the CC50 at 6 days in data set [2] is over 100 µM.
For `O=C(Nc1cccc(Br)c1)C(=O)N1CCN(C(=O)c2cc3ccccc3[nH]2)CC1` [Example 1, N-(3-bromophenyl)-2-[4-(1H-indole-2-carbonyl)piperazin-1-yl]-2-oxoacetamide], the EC50 in the data set on HBV fell in the range of 1 to 10 µM.
`C[C@@H]1CN(C(=O)C(=O)NC(C)(C)C)[C@@H](C)CN1C(=O)c1cc2ccccc2[nH]1` [Example 48, N-tert-butyl-2-[(2S,5R)-4-(1H-indole-2-carbonyl)-2,5-dimethylpiperazin-1-yl]-2-oxoacetamide] came in with an IC50 in data set [1] of under 5 µM.
As for `CC(C)(C)NC(=O)C(=O)N1CCN(C(=O)c2cc3c(F)cc(F)cc3[nH]2)CC1` [Example 43, N-(tert-butyl)-2-(4-(4,6-difluoro-1H-indole-2-carbonyl)piperazin-1-yl)-2-oxoacetamide], the half-maximal inhibitory concentration (IC50) in data set [1] is under 5 µM.
Still for that read-out and setting: then `O=C1CCC(CNC(=O)C(=O)N2CCN(C(=O)c3cc4ccccc4[nH]3)CC2)N1` (stereo not drawn) [Example 14, 2-[4-(1H-indole-2-carbonyl)piperazin-1-yl]-2-oxo-N-[(5-oxopyrrolidin-2-yl)methyl]acetamide], with under 100 µM.

The values above are taken from US20220227737A1, “NOVEL OXALYL PIPERAZINES ACTIVE AGAINST THE HEPATITIS B VIRUS (HBV)” (AiCuris GmbH & Co. KG, priority 2019, published 2022).
